Measurements from patent publication US20050070510A1, “Substituted tetracycline compounds as synergistic antifungal agents” (Paratek Pharmaceuticals, Inc., priority 2001, published 2005).

Tested on: COS-1 cells
Experiment: In vitro mammalian cytotoxicity assay (Resazurin)

Question: How did the “In Vitro Cytotoxicity” value turn out when `COc1ccc(-c2ccc3c(c2O)C(=O)C2=C(O)[C@]4(C#N)C(=O)C(C(N)=O)=C(O)[C@@H](N(C)C)[C@]4(N)[C@@H](O)[C@]2(N)[C@H]3N)cc1CN1CCCC1` [PQ] was run?
Answer: The value was “* (toxicities greater than >25 μg/ml are represented by *)”.

Question: For `COc1ccc(CN2CCCC2)cc1-c1ccc2c(c1O)C(=O)C1=C(O)[C@]3(C#N)C(=O)C(C(N)=O)=C(O)[C@@H](N(C)C)[C@]3(N)[C@@H](O)[C@]1(N)[C@H]2N` [PR], which “In Vitro Cytotoxicity” value is on record?
Answer: The value was “* (toxicities greater than >25 μg/ml are represented by *)”.

Question: Which “In Vitro Cytotoxicity” value does the source give for `COC(=O)c1cc(N)cc(-c2ccc(O)c3c2C[C@@]2(N)C[C@@]4(N)[C@H](N(C)C)C(O)=C(C(N)=O)C(=O)[C@@]4(C#N)C(O)=C2C3=O)c1` [PT] here?
Answer: The value was “* (toxicities greater than >25 μg/ml are represented by *)”.

Question: For `CN(C)[C@@H]1C(O)=C(C(N)=O)C(=O)[C@@]2(C#N)C(O)=C3C(=O)c4c(O)c(-c5cccc6c5OCO6)cc(-c5ccc6c(c5)OCO6)c4[C@H](N)[C@@]3(N)[C@H](O)[C@@]12N` [PU], which “In Vitro Cytotoxicity” value is on record?
Answer: The value was “** (toxicities less than 25 μg/mL are represented by **)”.

Question: For `CN(C)[C@@H]1C(O)=C(C(N)=O)C(=O)[C@@]2(C#N)C(O)=C3C(=O)c4c(ccc(-c5ccc6c(c5)OCO6)c4O)[C@H](N)[C@@]3(N)[C@H](O)[C@@]12N` [PV], which “In Vitro Cytotoxicity” value is on record?
Answer: The value was “** (toxicities less than 25 μg/mL are represented by **)”.

Question: Which “In Vitro Cytotoxicity” value does the source give for `CN(C)c1cc(CCC2(O)CCCC2)c(O)c2c1C[C@@]1(N)C[C@@]3(N)[C@H](N(C)C)C(O)=C(C(N)=O)C(=O)[C@@]3(C#N)C(O)=C1C2=O` [PW] here?
Answer: Its value is “** (toxicities less than 25 μg/mL are represented by **)”.

Question: For `CN(C)[C@@H]1C(O)=C(C(N)=O)C(=O)[C@@]2(C#N)C(O)=C3C(=O)c4c(O)c(-c5ccccc5)cc(-c5ccccc5)c4[C@H](N)[C@@]3(N)[C@H](O)[C@@]12N` [PX], which “In Vitro Cytotoxicity” value is on record?
Answer: The value was “** (toxicities less than 25 μg/mL are represented by **)”.

Question: `COCCOC(=O)Nc1ccc(-c2ccc(O)c3c2C[C@@]2(N)C[C@@]4(N)[C@H](N(C)C)C(O)=C(C(N)=O)C(=O)[C@@]4(C#N)C(O)=C2C3=O)cc1` [PY] was tested. Which “In Vitro Cytotoxicity” value did it give?
Answer: The value was “* (toxicities greater than >25 μg/ml are represented by *)”.

Question: With `CN(C)[C@@H]1C(O)=C(C(N)=O)C(=O)[C@@]2(C#N)C(O)=C3C(=O)c4c(O)c(C(C)(C)C)cc(C(=O)Cl)c4C[C@@]3(N)C[C@@]12N` [QA] as the compound, how does the “In Vitro Cytotoxicity” value read?
Answer: The value was “** (toxicities less than 25 μg/mL are represented by **)”.

Question: `CN(C)[C@@H]1C(O)=C(C(N)=O)C(=O)[C@@]2(C#N)C(O)=C3C(=O)c4c(O)ccc(-c5ccc(F)c(F)c5)c4C[C@@]3(N)C[C@@]12N` [QB] was tested. Which “In Vitro Cytotoxicity” value did it give?
Answer: Its value is “** (toxicities less than 25 μg/mL are represented by **)”.

Question: How did the “In Vitro Cytotoxicity” value turn out when `CN(C)[C@@H]1C(O)=C(C(N)=O)C(=O)[C@@]2(C#N)C(O)=C3C(=O)c4c(ccc(-c5cc6ccccc6o5)c4O)[C@H](N)[C@@]3(N)[C@H](O)[C@@]12N` [QC] was run?
Answer: Its value is “** (toxicities less than 25 μg/mL are represented by **)”.

Question: How did the “In Vitro Cytotoxicity” value turn out when `COc1ccc(-c2ccc(O)c3c2C[C@@]2(N)C[C@@]4(N)[C@H](N(C)C)C(O)=C(C(N)=O)C(=O)[C@@]4(C#N)C(O)=C2C3=O)cc1CN` [QD] was run?
Answer: Its value is “* (toxicities greater than >25 μg/ml are represented by *)”.

Question: With `COc1ccc(-c2ccc(O)c3c2C[C@@]2(N)C[C@@]4(N)[C@H](N(C)C)C(O)=C(C(N)=O)C(=O)[C@@]4(C#N)C(O)=C2C3=O)cc1` [QF] as the compound, how does the “In Vitro Cytotoxicity” value read?
Answer: The value was “** (toxicities less than 25 μg/mL are represented by **)”.

Question: With `CCOc1ccc(-c2ccc(O)c3c2C[C@@]2(N)C[C@@]4(N)[C@H](N(C)C)C(O)=C(C(N)=O)C(=O)[C@@]4(C#N)C(O)=C2C3=O)cc1CNC(=O)NC(C)(C)C` [QG] as the compound, how does the “In Vitro Cytotoxicity” value read?
Answer: Its value is “* (toxicities greater than >25 μg/ml are represented by *)”.

Question: `CN(C)[C@@H]1C(O)=C(C(N)=O)C(=O)[C@@]2(C#N)C(O)=C3C(=O)c4c(O)ccc(-c5ccc(C(C)(C)C)cc5)c4C[C@@]3(N)C[C@@]12N` [QH] was tested. Which “In Vitro Cytotoxicity” value did it give?
Answer: Its value is “** (toxicities less than 25 μg/mL are represented by **)”.

Question: For `CC(C)NCc1ccc(-c2ccc(O)c3c2[C@H](N)[C@]2(N)C(=C(O)[C@]4(C#N)C(=O)C(C(N)=O)=C(O)[C@@H](N(C)C)[C@]4(N)[C@H]2O)C3=O)o1` [QK], which “In Vitro Cytotoxicity” value is on record?
Answer: Its value is “* (toxicities greater than >25 μg/ml are represented by *)”.

Question: With `COc1ccc(CNCc2cccc(F)c2)cc1-c1ccc(O)c2c1[C@H](N)[C@]1(N)C(=C(O)[C@]3(C#N)C(=O)C(C(N)=O)=C(O)[C@@H](N(C)C)[C@]3(N)[C@H]1O)C2=O` [QL] as the compound, how does the “In Vitro Cytotoxicity” value read?
Answer: Its value is “* (toxicities greater than >25 μg/ml are represented by *)”.

Question: For `CN(C)[C@@H]1C(O)=C(C(N)=O)C(=O)[C@@]2(C#N)C(O)=C3C(=O)c4c(O)c(NC(=O)OCC(C)(C)C)cc(CN)c4C[C@@]3(N)C[C@@]12N` [QM], which “In Vitro Cytotoxicity” value is on record?
Answer: Its value is “* (toxicities greater than >25 μg/ml are represented by *)”.

Question: How did the “In Vitro Cytotoxicity” value turn out when `CN(C)c1ccc(-c2cc(CN)c(O)c3c2C[C@@]2(N)C[C@@]4(N)[C@H](N(C)C)C(O)=C(C(N)=O)C(=O)[C@@]4(C#N)C(O)=C2C3=O)cc1` [QN] was run?
Answer: The value was “* (toxicities greater than >25 μg/ml are represented by *)”.

Question: With `CN(C)c1ccc(-c2cc(C#CC3=CCCCC3)c(O)c3c2C[C@@]2(N)C[C@@]4(N)[C@H](N(C)C)C(O)=C(C(N)=O)C(=O)[C@@]4(C#N)C(O)=C2C3=O)cc1` [QO] as the compound, how does the “In Vitro Cytotoxicity” value read?
Answer: The value was “** (toxicities less than 25 μg/mL are represented by **)”.

Question: How did the “In Vitro Cytotoxicity” value turn out when `CC(=O)c1ccc(-c2ccc3c(c2O)C(=O)C2=C(O)[C@]4(C#N)C(=O)C(C(N)=O)=C(O)[C@@H](N(C)C)[C@]4(N)[C@@H](O)[C@]2(N)[C@H]3N)cc1` [QP] was run?
Answer: The value was “** (toxicities less than 25 μg/mL are represented by **)”.

Question: `CCOc1ccc(-c2ccc(O)c3c2C[C@@]2(N)C[C@@]4(N)C(N(C)C)C(O)=C(C(N)=O)C(=O)[C@@]4(C#N)C(O)=C2C3=O)cc1CNC(=O)C(F)(F)F` (some centres unmarked) [QQ] was tested. Which “In Vitro Cytotoxicity” value did it give?
Answer: Its value is “* (toxicities greater than >25 μg/ml are represented by *)”.

Question: How did the “In Vitro Cytotoxicity” value turn out when `COc1ccc(C(=O)Nc2ccc(-c3ccc(O)c4c3C[C@@]3(N)C[C@@]5(N)C(N(C)C)C(O)=C(C(N)=O)C(=O)[C@@]5(C#N)C(O)=C3C4=O)cc2)cc1` (some centres unmarked) [QR] was run?
Answer: The value was “** (toxicities less than 25 μg/mL are represented by **)”.

Question: `COC(=O)C(CO)NC(=O)c1cccc(-c2ccc(O)c3c2C[C@@]2(N)C[C@@]4(N)C(N(C)C)C(O)=C(C(N)=O)C(=O)[C@@]4(C#N)C(O)=C2C3=O)c1` (some centres unmarked) [QT] was tested. Which “In Vitro Cytotoxicity” value did it give?
Answer: Its value is “** (toxicities less than 25 μg/mL are represented by **)”.

Question: How did the “In Vitro Cytotoxicity” value turn out when `COc1ccc(-c2ccc(O)c3c2C[C@@]2(N)C[C@@]4(N)C(N(C)C)C(O)=C(C(N)=O)C(=O)[C@@]4(C#N)C(O)=C2C3=O)cc1C=O` (some centres unmarked) [QV] was run?
Answer: The value was “** (toxicities less than 25 μg/mL are represented by **)”.

Question: Which “In Vitro Cytotoxicity” value does the source give for `CCC(CC)CCc1ccc(O)c2c1C[C@@]1(N)C[C@@]3(N)C(N(C)C)C(O)=C(C(N)=O)C(=O)[C@@]3(C#N)C(O)=C1C2=O` (some centres unmarked) [QX] here?
Answer: Its value is “** (toxicities less than 25 μg/mL are represented by **)”.

Question: For `CNNC(=O)c1cccc(-c2ccc(O)c3c2C[C@@]2(N)C[C@@]4(N)C(N(C)C)C(O)=C(C(N)=O)C(=O)[C@@]4(C#N)C(O)=C2C3=O)c1` (some centres unmarked) [QY], which “In Vitro Cytotoxicity” value is on record?
Answer: Its value is “* (toxicities greater than >25 μg/ml are represented by *)”.

Question: How did the “In Vitro Cytotoxicity” value turn out when `CCc1cc(N(C)C)c2c(c1O)C(=O)C1=C(O)[C@]3(C#N)C(=O)C(C(N)=O)=C(O)[C@@H](N(C)C)[C@]3(N)C[C@]1(N)C2` [QZ] was run?
Answer: Its value is “* (toxicities greater than >25 μg/ml are represented by *)”.

Question: Which “In Vitro Cytotoxicity” value does the source give for `CO/N=C(/C)c1cc(C(C)(C)C)c(O)c2c1C[C@@]1(N)C[C@@]3(N)[C@H](N(C)C)C(O)=C(C(N)=O)C(=O)[C@@]3(C#N)C(O)=C1C2=O` [RA] here?
Answer: The value was “** (toxicities less than 25 μg/mL are represented by **)”.
